# Columns and labels:
# KIF15 = KIF15 (Homo sapiens (Human), UniProt Q9NS87); details: read-out: median inhibitory concentration; cited from earlier work
# KIF11 = KIF11 (Homo sapiens (Human), UniProt P52732); details: b18, cited from earlier work
# [1] = system: ovarian cancer cell lines; test: cells; details: 72 h, read-out: IC50 cell viability
# [2] = system: ovarian cancer cell lines; details: 72 h
# [3] = system: HIO-80, HIO-118, FT190, FT194; test: CellTiter Glo cell viability, immortalized non-tumorigenic cell lines; format: cell-based; details: control cell lines, 72 hours
# Chain of KIF11 (P52732 whole entry): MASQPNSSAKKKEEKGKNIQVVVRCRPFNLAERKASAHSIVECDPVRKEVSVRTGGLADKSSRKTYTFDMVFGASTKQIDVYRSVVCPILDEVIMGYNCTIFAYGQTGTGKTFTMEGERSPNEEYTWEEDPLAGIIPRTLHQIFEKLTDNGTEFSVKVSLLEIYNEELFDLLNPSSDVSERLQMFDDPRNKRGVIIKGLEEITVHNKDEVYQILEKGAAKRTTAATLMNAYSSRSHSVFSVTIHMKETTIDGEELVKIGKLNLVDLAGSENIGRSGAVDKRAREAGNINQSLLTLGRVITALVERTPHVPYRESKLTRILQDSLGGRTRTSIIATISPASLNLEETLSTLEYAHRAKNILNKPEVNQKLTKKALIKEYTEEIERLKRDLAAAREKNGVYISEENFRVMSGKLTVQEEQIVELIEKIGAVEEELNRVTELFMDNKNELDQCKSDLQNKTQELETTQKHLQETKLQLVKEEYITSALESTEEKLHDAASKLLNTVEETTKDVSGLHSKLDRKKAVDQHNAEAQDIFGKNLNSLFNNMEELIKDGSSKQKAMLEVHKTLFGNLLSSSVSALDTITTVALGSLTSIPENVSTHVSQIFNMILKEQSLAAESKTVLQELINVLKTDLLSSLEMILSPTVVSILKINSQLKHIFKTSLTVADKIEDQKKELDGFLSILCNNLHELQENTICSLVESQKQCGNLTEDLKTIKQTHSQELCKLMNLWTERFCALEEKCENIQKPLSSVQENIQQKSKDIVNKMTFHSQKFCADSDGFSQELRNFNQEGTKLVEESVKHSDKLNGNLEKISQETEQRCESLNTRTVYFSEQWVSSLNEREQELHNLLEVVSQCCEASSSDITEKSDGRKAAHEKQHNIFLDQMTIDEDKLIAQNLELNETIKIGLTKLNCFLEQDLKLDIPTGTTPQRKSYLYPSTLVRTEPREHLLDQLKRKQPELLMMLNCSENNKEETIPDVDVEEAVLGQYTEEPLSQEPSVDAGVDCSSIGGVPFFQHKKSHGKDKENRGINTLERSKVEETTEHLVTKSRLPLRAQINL
# Chain of KIF15 (Q9NS87 whole entry): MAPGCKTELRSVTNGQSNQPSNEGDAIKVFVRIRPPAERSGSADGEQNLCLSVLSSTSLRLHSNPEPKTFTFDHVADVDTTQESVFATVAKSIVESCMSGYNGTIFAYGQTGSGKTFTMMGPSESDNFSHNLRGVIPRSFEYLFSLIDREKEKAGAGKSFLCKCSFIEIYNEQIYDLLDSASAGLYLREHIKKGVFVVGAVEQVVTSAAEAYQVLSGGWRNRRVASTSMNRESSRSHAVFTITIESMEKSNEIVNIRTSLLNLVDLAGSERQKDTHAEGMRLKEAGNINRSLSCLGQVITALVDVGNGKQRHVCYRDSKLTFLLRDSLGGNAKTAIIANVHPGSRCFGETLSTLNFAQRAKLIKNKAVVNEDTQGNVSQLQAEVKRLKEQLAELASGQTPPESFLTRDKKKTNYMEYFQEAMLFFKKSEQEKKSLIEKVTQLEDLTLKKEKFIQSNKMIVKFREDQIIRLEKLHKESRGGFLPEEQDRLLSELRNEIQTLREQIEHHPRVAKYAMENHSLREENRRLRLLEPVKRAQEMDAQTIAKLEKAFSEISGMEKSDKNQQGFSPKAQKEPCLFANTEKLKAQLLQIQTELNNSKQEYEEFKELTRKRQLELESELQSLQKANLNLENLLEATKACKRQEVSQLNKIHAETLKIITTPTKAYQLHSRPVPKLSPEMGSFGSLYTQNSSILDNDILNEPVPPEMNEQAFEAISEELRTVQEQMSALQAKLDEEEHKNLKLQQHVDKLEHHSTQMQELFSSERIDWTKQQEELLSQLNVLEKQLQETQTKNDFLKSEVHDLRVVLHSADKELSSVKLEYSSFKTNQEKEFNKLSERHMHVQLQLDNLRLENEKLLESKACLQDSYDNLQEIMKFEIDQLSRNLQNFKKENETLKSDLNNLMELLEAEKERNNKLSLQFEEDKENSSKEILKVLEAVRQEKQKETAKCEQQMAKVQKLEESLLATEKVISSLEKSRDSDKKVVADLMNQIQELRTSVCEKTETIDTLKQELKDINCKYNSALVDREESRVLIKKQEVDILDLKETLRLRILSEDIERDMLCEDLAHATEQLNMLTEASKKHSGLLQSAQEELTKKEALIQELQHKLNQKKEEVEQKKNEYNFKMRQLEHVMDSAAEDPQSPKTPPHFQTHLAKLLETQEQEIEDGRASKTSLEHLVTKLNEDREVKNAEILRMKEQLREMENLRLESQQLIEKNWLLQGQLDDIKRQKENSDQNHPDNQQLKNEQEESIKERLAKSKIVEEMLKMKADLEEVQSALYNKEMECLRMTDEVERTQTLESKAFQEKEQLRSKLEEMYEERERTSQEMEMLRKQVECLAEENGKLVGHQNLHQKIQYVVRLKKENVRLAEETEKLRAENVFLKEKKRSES
smiles,measurement,setting,value
O=C1Nc2ccc(C(=O)c3ccco3)cc2/C1=C/c1cc(Cl)c(O)c(Cl)c1 [GW108X],IC50,KIF15,800 nM
CON(C)C(=O)N1N=C(c2cc(F)ccc2F)S[C@@]1(CCCN)c1ccccc1 [filanesib],Ki,KIF11; read-out: K values,6 nM
Cc1ccc(C(=O)N(CCCN)[C@@H](c2nc3cc(Cl)ccc3c(=O)n2Cc2ccccc2)C(C)C)cc1 [ispinesib],IC50,[1],1.07 to 15.8 nM
same,loss of viability,[2],greater than 50%
same,IC50,[3],7.04 to 23.4 nM
CCOC(=O)C1=C(C)NC(=S)NC1c1cccc(O)c1 (stereo not drawn) [monastrol],inhibit motor ATP hydrolysis,KIF11,4.9 µM

# Source: patent US20240342179A1, “TREATMENT OF CANCERS OR NEOPLASMS BY INHIBITING KIF15” (University of Kansas, priority 2023, published 2024)
